Measurements published in patent publication US12686846B2, “Plant sweet and yeast MSF transporter capable of transporting different sugars simultaneously” (THE BOARD OF TRUSTEES OF THE UNIVERSITY OF ILLINOIS, priority 2020, dated 2026).

Tests used:
Assay type in all cases: cell-based
[1] = molecular target: T1, Arabidopsis thaliana AtSWEET7 transporter, wild type (Table 2: SEQ ID NO: 3; FIG. 12: SEQ ID NO:2) (Arabidopsis thaliana, UniProt Q8LBF7); assay: C14 labeled sugar uptake assay (zero-trans influx), SR8D8 expressing AtSWEET7; conditions: initial xylose uptake (20 s), 30° C., pH 6.5; cell wet weight; ± SEM
T1 construct: expressed in transfected cells; host or cells: S. cerevisiae SR8D8 (SR8 with HXT1-7 and GAL2 deleted), plasmid p42K-GPD1p-CYC1t
T1 sequence (Q8LBF7 1-258): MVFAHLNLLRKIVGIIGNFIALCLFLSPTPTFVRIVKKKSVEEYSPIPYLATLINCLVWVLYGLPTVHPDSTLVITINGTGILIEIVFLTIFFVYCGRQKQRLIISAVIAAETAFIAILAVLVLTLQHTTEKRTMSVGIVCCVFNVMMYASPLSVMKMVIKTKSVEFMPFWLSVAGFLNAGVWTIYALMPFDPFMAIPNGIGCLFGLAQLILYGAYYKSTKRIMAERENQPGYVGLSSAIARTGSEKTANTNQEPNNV
Method: (§1) FIG. 7A illustrates sugar uptake kinetics by SR8D8. FIG. 7B illustrates sugar uptake kinetics by SR8D8 expressing AtSWEET1. FIG. 7C illustrates sugar uptake kinetics by SR8D8 expressing ScGal2. FIG. 7D illustrates sugar uptake kinetics by SR8D8 expressing AtSWEET7. FIG. 7E illustrates sugar uptake kinetics by SR8D8 expressing LST1_205437. Initial xylose uptake (20 s) was measured at 30° C. over a concentration range of 1 to 500 mM xylose. FIG. 7F illustrates sugar uptake kinetics by SR8D8. FIG. 7G illustrates sugar uptake kinetics by SR8D8 expressing AtSWEET1. FIG. 7H illustrates sugar uptake kinetics by SR8D8 expressing ScGal2. FIG. 7I illustrates sugar uptake kinetics by SR8D8 expressing AtSWEET7. FIG. 7J illustrates sugar uptake kinetics by SR8D8 expressing LST1_205437. Initial glucose uptake (5 s) was measured at 30° C. over a concentration range of 0.2 to 100 mM glucose. […]
(§2) A xylose fermenting S. cerevisiae yeast (SR8) with HXT1-7Δ, GAL2Δ deletions was used for transporter screening and characterization (SR8D8). […] Biomass was calculated from the OD600 measured using a Biomate 5 UV-visible spectrophotometer (Fisher, NY, USA). All growth rates were measured using a Bioscreen C plate reader system (Growth Curves USA, Piscataway, NJ, USA). […]
(§3) Uptake was measured at sugar concentrations 0.2, 1, 5, 25, and 100 mM for glucose and 1, 5, 25, 66, 100, 200, and 500 mM for xylose. […]

[2] = molecular target: T2, Lipomyces starkeyi LST1_205437 transporter, wild type, SEQ ID NO: 4 (Lipomyces starkeyi, UniProt A0A1E3QE37); assay: C14 labeled sugar uptake assay (zero-trans influx), SR8D8 expressing LST1_205437; conditions: initial xylose uptake (20 s), 30° C., pH 6.5
T2 construct: whole-cell 14C sugar uptake
T2 sequence (A0A1E3QE37 1-603): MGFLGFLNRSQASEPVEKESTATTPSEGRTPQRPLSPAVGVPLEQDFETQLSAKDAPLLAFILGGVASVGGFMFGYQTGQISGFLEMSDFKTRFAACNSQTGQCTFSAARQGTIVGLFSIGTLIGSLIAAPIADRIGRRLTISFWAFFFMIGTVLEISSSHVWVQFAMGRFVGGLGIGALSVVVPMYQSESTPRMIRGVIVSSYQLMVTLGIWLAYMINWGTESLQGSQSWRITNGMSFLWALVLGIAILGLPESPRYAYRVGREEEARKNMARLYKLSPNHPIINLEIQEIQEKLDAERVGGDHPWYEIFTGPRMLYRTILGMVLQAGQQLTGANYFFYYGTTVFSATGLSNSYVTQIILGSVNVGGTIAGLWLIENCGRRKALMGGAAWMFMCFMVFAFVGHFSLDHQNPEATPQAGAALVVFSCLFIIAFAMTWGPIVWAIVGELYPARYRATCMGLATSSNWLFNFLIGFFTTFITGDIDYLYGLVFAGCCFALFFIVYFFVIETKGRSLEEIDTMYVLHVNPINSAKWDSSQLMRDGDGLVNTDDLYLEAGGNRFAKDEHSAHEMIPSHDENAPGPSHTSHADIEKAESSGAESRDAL
Method: (§4) FIG. 7A illustrates sugar uptake kinetics by SR8D8. FIG. 7B illustrates sugar uptake kinetics by SR8D8 expressing AtSWEET1. FIG. 7C illustrates sugar uptake kinetics by SR8D8 expressing ScGal2. FIG. 7D illustrates sugar uptake kinetics by SR8D8 expressing AtSWEET7. FIG. 7E illustrates sugar uptake kinetics by SR8D8 expressing LST1_205437. Initial xylose uptake (20 s) was measured at 30° C. over a concentration range of 1 to 500 mM xylose. FIG. 7F illustrates sugar uptake kinetics by SR8D8. FIG. 7G illustrates sugar uptake kinetics by SR8D8 expressing AtSWEET1. FIG. 7H illustrates sugar uptake kinetics by SR8D8 expressing ScGal2. FIG. 7I illustrates sugar uptake kinetics by SR8D8 expressing AtSWEET7. FIG. 7J illustrates sugar uptake kinetics by SR8D8 expressing LST1_205437. Initial glucose uptake (5 s) was measured at 30° C. over a concentration range of 0.2 to 100 mM glucose. Curve fitting for Michaelis-Menten kinetics was applied to data of three independent measurements at each concentration.
as §2, with “(SR8D8). SR8D8 was grown in YPE medium/plate (10 g/L yeast extract, 20 g/L peptone, and 5 g/L ethanol).” for “(SR8D8).”
(§5) SR8D8 containing the respective plasmid was grown on selective YPE medium to an OD600 of 1-1.5, harvested by centrifugation, and washed twice in ice-cold uptake buffer (100 mM potassium phosphate, pH 6.5). […] Radioactivity was analyzed in a Beckman-Coulter LS6500 multi-purpose liquid scintillation counter (Beckman-Coulter, CA, USA).
(§6) Uptake was measured at sugar concentrations 0.2, 1, 5, 25, and 100 mM for glucose and 1, 5, 25, 66, 100, 200, and 500 mM for xylose. Inhibition of xylose uptake by glucose was measured at 25, 66, and 100 mM xylose with additional 25 and 100 mM unlabeled glucose.

[3] = molecular target: T3, Saccharomyces cerevisiae ScGal2 (Gal2) transporter, SEQ ID NO:32 (Saccharomyces cerevisiae, UniProt P13181); assay: C14 labeled sugar uptake assay (zero-trans influx), SR8D8 expressing ScGal2; conditions: initial xylose uptake (20 s), 30° C., pH 6.5; cell wet weight; ± SEM
T3 construct: expressed in transfected cells; host or cells: S. cerevisiae SR8D8 (SR8 with HXT1-7 and GAL2 deleted), plasmid p42K-GPD1p-CYC1t
T3 sequence (P13181 1-574): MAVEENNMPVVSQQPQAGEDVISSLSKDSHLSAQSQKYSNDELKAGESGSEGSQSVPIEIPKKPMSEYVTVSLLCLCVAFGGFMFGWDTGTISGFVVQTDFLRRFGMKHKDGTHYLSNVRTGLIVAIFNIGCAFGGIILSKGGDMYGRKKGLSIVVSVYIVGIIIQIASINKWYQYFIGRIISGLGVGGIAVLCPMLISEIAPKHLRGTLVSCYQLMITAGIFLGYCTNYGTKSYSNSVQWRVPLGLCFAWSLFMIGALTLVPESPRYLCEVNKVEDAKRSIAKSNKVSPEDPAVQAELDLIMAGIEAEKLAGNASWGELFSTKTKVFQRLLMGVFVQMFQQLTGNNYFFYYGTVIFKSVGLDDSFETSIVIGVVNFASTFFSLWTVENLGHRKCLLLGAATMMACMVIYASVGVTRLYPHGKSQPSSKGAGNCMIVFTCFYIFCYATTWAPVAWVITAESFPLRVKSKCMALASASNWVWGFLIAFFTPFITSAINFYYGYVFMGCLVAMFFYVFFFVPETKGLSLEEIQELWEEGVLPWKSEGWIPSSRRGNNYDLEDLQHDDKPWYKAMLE
Method: as §4
as §2, with “(SR8D8). SR8D8 was grown in YPE medium/plate (10 g/L yeast extract, 20 g/L peptone, and 5 g/L ethanol).” for “(SR8D8).”
as §5, §6

[4] = molecular target: T4, Arabidopsis thaliana AtSWEET1 transporter, wild type, SEQ ID NO: 1 (Arabidopsis thaliana, UniProt Q8L9J7); assay: C14 labeled sugar uptake assay, SR8D8 expressing AtSWEET1; conditions: in words
T4 construct: whole-cell 14C sugar uptake
T4 sequence (Q8L9J7 1-247): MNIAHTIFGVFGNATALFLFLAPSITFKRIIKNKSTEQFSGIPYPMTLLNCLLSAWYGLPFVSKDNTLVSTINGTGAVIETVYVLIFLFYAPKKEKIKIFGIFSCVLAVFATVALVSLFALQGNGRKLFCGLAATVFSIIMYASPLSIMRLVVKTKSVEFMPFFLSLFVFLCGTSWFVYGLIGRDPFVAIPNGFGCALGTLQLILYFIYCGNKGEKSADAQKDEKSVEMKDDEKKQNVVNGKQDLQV
Method: as §1, §2, §3

OC1OC[C@@H](O)[C@H](O)[C@H]1O (stereo partly drawn) [Xylose, D-xylose]
Vmax (xylose) [1]: 100.9 ± 14.8 nmol/min/mg
Vmax (xylose) [2]: 76.8 nmol/min/mg
Vmax (xylose) ([2]; cell wet weight, ± SEM): 76.8 ± 9.0 nmol/min/mg
Vmax (xylose) [3]: 88.7 ± 10.0 nmol/min/mg
xylose transport kinetics [4]: very poor xylose transport kinetics
